Measured values: patent US9084770B2, “Modulation of insulin like growth factor I receptor expression in cancer” (Antisense Therapeutics, Ltd., priority 2008, dated 2015)
Marks after values point to notes of the source that are not given here.

How the values were obtained:
[1] = system: IGF-IR mRNA; assay: IGF-IR mRNA expression in transfected LNCaP and PC-3 cells, quantitative RT-PCR; assay type: cell-based, human; settings: one day after treatment
Method: (§1) Established methods were used to test the activity of IGF-IR antisense oligonucleotide on LNCaP and PC-3 cell growth (crystal violet assay) and apoptosis (FACS). Dose- and sequence-specific suppression of IGF-IR mRNA and protein expression in ATL1101-treated LNCaP and PC3 PC cell lines in vitro were observed by QT-PCR and western blotting. Effects of the IGF-IR antisense oligonucleotide on various putative targets, including IGF-IR and downstream targets were evaluated using western blotting.
FIGS. 1A(i)-1A(ii) show the sequence-specific and dose-dependent suppression of IGF-IR mRNA expression levels by ATL1101 in LNCaP (FIG. 1A (i)) and PC-3 (FIG. 1A (ii)) cells. […] One day after treatment, total RNA was extracted, and IGF-IR mRNA expression was analyzed by quantitative RT-PCR. IGF-IR mRNA levels were normalized to levels of GAPDH mRNA and expressed here as mean±SE. ***, p<0.001 differ from control (oligofectamine only) by Student's t test. “Control” cells were treated with oligofectamine only. In LNCaP cells, IGF-IR expression was >70% suppressed by 10 nM ATL1101 and >90% at 200 nM ATL1101. In PC3 cells, IGF-IR expression was suppressed ˜40% at 10 nM ATL1101, >50% at 50 nM ATL1101 and ˜80% at 200 nM. Control oligodeoxynucleotide (ISIS 306064) did suppress IGF-IR mRNA expression but by less than 25% at maximal doses tested

[2] = system: LNCaP cells; assay: LNCaP cell viability, crystal violet assay; assay type: cell-based, human
Method: as §1
(§2) Cells were transfected with indicated concentrations of ATL1101, control oligodeoxynucleotides or oligofectamine as in FIGS. 1A(i)-1A(ii). Three days after treatment, cell viability was determined by crystal violet assay. Viable cell density was normalized to that of cells treated with oligofectamine. Points, means of triplicate analysis; bars, SE. *, p<0.05 differs from control oligodeoxynucleotide treatment group. **, p<0.01 differs from control oligodeoxynucleotide treatment group by Student's t test.

[3] = system: PC3 cells; assay: PC3 cell viability, crystal violet assay; assay type: cell-based, human; settings: FBS media, achieved by 100 nM, three days after treatment
Method: as §1, §2

[4] = system: LNCaP cells; assay: LNCaP cell cycle and apoptosis, flow cytometry with propidium iodide; assay type: cell-based, human; settings: 100 nM
Method: as §1
The Effect of IGF-IR silencing with IGF-IR antisense oligonucleotide (ATL1101) on LNCaP and PC3 cell apoptosis and cell cycle is shown in FIGS. 4A(i)-(ii), 4B, 4C(i)-(ii), and Table 2. Cells were transfected with indicated concentrations of ATL1101, control oligodeoxynucleotide or oligofectamine as in FIGS. 1A(i)-1B(ii). Two days after treatment, cell cycle analysis was determined by flow cytometry using propidium iodide staining. […] In FIGS. 4C(i)-(ii), LNCaP (FIG. 4C (i)) or PC-3 (FIG. 4C (ii)) cells were transfected with indicated concentration of ATL1101 or control oligodeoxynucleotide (ISIS 306064) for two days. Cells were then cultured in FBS media for one day and in serum-free media for one day. Whole cell lysates (30 μg) were subjected to SDS-PAGE and immunoblotted to assess Cyclin D1, Cyclin E, p-RB, total Rb, and p27 protein levels. Oligo, oligofectamine treated cells only.

[5] = system: LNCaP tumors; assay: LNCaP xenograft after castration, tumor volume and serum PSA; assay type: in vivo, mice; settings: 15 mg/kg i.p. once daily for 7 days and 3 times per week thereafter; vs control oligodeoxynucleotide
Method: One million PC-3 or LNCaP cells were injected subcutaneously in athymic mice. For LNCaP xenografts, when PSA values exceeded 50 ng/ml, mice were castrated and randomly selected for treatment with ATL1101 or control oligodeoxynucleotide (15 mg/kg) injected i.p. once daily for 7 days and 3 times per week thereafter. Blood samples were obtained from the tail vein of the mice once weekly to measure serum PSA by ELISA. For PC-3 xenografts, when tumors reached 100 mm^3, mice were randomly selected and treated with the same protocol as LNCaP.
The effects of IGF-IR antisense oligonucleotide treatment in LNCaP and PC-3 tumors in vivo are show in FIGS. 5A-5C. LNCaP cells were inoculated s.c. and when PSA values exceeded 50 ng/ml, mice were castrated and randomly selected for treatment with ATL1101 or control oligodeoxynucleotide (15 mg/kg) injected i.p. once daily for 7 days and 3 times per week thereafter. Blood samples were obtained from the tail vein of the mice once weekly to measure serum PSA by ELISA. PC-3 cells were inoculated s.c. and when tumors reached 100 mm^3, mice were randomly selected for treatment with the same protocol as LNCaP. Each point represents the mean tumor volume in each group containing 10 mice; bars, SE. * differs from control oligodeoxynucleotide treatment group (p<0.05) by Student's t test.

[6] = system: IGF-IRβ, p-AKT, pERK1/2; assay: PC3 xenograft tumor proteins, western blotting; assay type: in vivo; settings: after 7 days of treatment; two of three mice
Method: Total PC3 xenograft tumor proteins were extracted after the treatment of IGFI-R antisense oligonucleotide or control oligodeoxynucleotide for 7 days and IGF-IRβ, p-AKT, pERK1/2, and vinculin protein levels were analyzed by western blotting. Tumor growth ratio of corresponding tumors are also shown (FIG. 5E).

[7] = system: IGF-IRB subunit; assay: IGF-IRB immunoblot in PC3 cells with or without Paclitaxel; assay type: cell-based, human; settings: 50 nM, with or without 1 nM Paclitaxel
Excerpt: Vinculin expression is shown as a loading control.

[8] = system: IGF-IR mRNA; assay: IGF-IR mRNA in PC3 Ptx-R cells; assay type: cell-based, human; settings: 10 to 200 nM, compared to oligofectamine transfection reagent
Excerpt: The PC3 Ptx-R cells retain sensitivity to ATL1101-induced IGF-IR down regulation at the mRNA and protein level as shown in FIGS. 11A-C. […] ATL1101 and the control oligodeoxynucleotide ISIS 306064 had no effect on either of the alternative spliced isoform transcripts of the insulin receptor, IR-A, IR-B or IR-β protein or vinculin protein levels.

## cgaaggaaacaatactccga (CGAAGGAAACAATACTCCGA; 2'-MOE modified, pattern not given here) [ISIS 175317, 2′-MOE-modified IGF-IR antisense oligonucleotide, also known as ATL1101]
[1]; LNCaP cells, 10 nM
  suppression of IGF-IR mRNA expression: > 70%
[1]; LNCaP cells, 200 nM
  suppression of IGF-IR mRNA expression: > 90%
[1]; PC3 cells, 10 nM
  suppression of IGF-IR mRNA expression: ~40%
[1]; PC3 cells, 50 nM
  suppression of IGF-IR mRNA expression: > 50%
[1]; PC3 cells, 200 nM
  suppression of IGF-IR mRNA expression: ~80%
[2]; FBS media, achieved by 100 nM, three days after treatment
  maximum reduction of cell viability relative to control: ~60%
[2]; androgen-deprived conditions (CSS), 25 nM
  suppression of cell viability: 60%
[3]
  maximum reduction of cell viability relative to control: ~60%
[4]; CSS condition
  % of total cells, G0/G1: 13.3%
  % of total cells, G2/M: 1.2%
  % of total cells, S: 1.2%
  % of total cells, Sub G0/G1: 84.3%
  subG0/G1 + G0/G1:S + G2/M: 40.7***
[4]; FBS condition
  % of total cells, G0/G1: 32.8%
  % of total cells, G2/M: 2.8%
  % of total cells, S: 3.4%
  subG0/G1 + G0/G1:S + G2/M: 15.1**
[4]; FBS condition, two days after treatment
  % of total cells, Sub G0/G1: 61%
[5]
  PSA rise rates after castration: significantly delayed
  tumor growth after castration: significantly delayed
[6]
  IGF-IR expression in tumor: decreased
  activation of AKT and ERK1/2 in tumor: suppressed
[7]
  IGF-IRB levels: specifically reduced
[8]
  IGF-IR mRNA levels: specifically reduced
